Tests used:
[1] = tested on: RAS-RAF interaction in BJeLR cells; assay: Cell-based RAS pulldown with CRAF-RBD agarose beads; details: 2 μM and 8 μM, 24 hours, serum free
Procedure: FIG. 20A-FIG. 20B show BJeLR cells were treated as described in FIG. 19A-FIG. 19B and the lysate was incubated with CRAF-RBD bound agarose beads. The beads were then washed three times with PBS to remove any unbound RAS and the bound fraction was then denatured and subjected to detection by western blotting using a pan-RAS antibody (FIG. 20A).
BJeLR cells were seeded at one million cells/10 cm dish in 10% FBS and incubated at 37° C. overnight. The medium was then aspirated and replaced with serum free media containing the inhibitors (from 10 mM DMSO stocks). The cells were then incubated for 24 hours at 37° C. The medium was removed, washed with cold PBS, lysed and spun down at 13,000 rpm at 4° C. to remove unlysed cells and debris. The lysate was incubated with Raf-1 RBD agarose beads (EMD millipore) for 2 hours with rotation at 4° C. The solution was then spun down at 1500×g and the supernatant removed. The beads were washed twice with PBS, resuspended in 2.5×SDS, and then analyzed by western blotting procedure.

[2] = tested on: phosphorylated ERK in BJeLR (HRAS^G12V); assay: Western blot of phosphorylated ERK; assay type: cell-based; details: 2 μM and 8 μM, 24 hours, serum free
Procedure: FIG. 19A-FIG. 19B show BJeLR cells were treated with DMSO, RAS inhibitor at 2 μM and 8 μM, U0126 at 8 μM, or BEZ-235 at 0.2 μM for 24 hours under serum free conditions. Cells were then lysed and the lysate was subjected to detection of phosphorylated Erk and total Erk by western blotting (FIG. 19A). Three independent experiments yielded essentially equivalent results.
(§1) BJeLR cells were seeded in 60 mm dishes at 1 million cells/dish in media containing DMEM and 10% FBS with 1% penicillin and streptomycin (PS), 12-16 hours prior to use. The medium was then aspirated and compounds added as solutions in serum free medium (DMEM with 1% PS) to the dishes and treated for 24 hours or at the indicated time points. Following treatment, the medium was aspirated from each dish and cells were washed twice with PBS. […] Antibodies for pERK1/2, ERK1/2, pAKT ser473, AKT, pan-RAS, RALA, PI3Kgamma (Cell signaling), and RAF-1 (Santa Cruz) were detected using a goat anti-rabbit or goat anti-mouse IgG antibody conjugated to an IRdye at 800CW and 680CW conjugated, respectively (Li-COR biosciences).

[3] = Aqueous solubility as noted during MST; assay type: physicochemical; details: noted in MST buffer
[4] = tested on: MDA-MB-231 cell line (KRAS^G13D); assay: Multicellular tumor spheroids in low adherence plates; assay type: cell-based; details: 72 hours; for size of multicellular tumor spheroids: low-adherence plates
Procedure: Multicellular Tumor Spheroids
Multicellular tumor spheroids (MCTSs) were grown in 96-well Corningware Ultra Low Attachment (ULA) Plates (CLS 3474). 100 μL of cell suspension containing 2×10^4 cells/ml were added to each well of the ULA plate containing 100 μL of a 2× solution of the desired concentration of compounds. Cells were incubated at 37° C., 5% CO2 for 72 hours to allow for MCTS formation. After 72 hours, 50 μL of a 50% solution of Alamar blue and medium was added and incubated for 12 hours prior to measurements on a Victor3 plate reader as previously described.

[5] = tested on: phosphorylated AKT in BJeLR cells; assay: Western blot of phosphorylated AKT; assay type: cell-based; details: 2 μM and 8 μM, 24 hours, serum free
Procedure: FIG. 21A-FIG. 21B show BJeLR cells were treated as described in FIG. 19A-FIG. 19B and the lysate was subjected to detection of phosphorylated AKT ([…]) and total AKT by western blotting (FIG. 21A).
as §1

[6] = target: T1, GppNHp-loaded RHOA (Homo sapiens, UniProt P61586); assay: Microscale thermophoresis on GppNHp-loaded RHOA; assay type: binding; details: MST, up to 190 μM
T1 construct: purchased Abcam ab101594
T1 sequence (P61586 whole entry): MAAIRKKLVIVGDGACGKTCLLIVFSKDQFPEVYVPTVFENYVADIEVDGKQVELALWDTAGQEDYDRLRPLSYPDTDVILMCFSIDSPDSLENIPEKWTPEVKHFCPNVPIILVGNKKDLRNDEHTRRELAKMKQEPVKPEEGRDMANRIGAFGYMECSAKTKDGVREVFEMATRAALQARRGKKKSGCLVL
Procedure: KRAS^G12D (250 μM) in 25 mM HEPES, 100 mM sodium chloride, 2 mM TCEP with 20 mM EDTA and 1 mM GppNHp was shaken at 220 rpm at 30° C. to remove the endogenous nucleotide, The solution was placed on ice for 2 minutes prior to the addition of 65 mM MgCl2. After an additional 10 minutes incubation on ice, 200 uL of a 10 uM solution of KRAS^G12D was combined with 200 uL of a 20 uM solution of NT-647-NHS-ester dye (from a 652.4 μM stock). The protein/dye mixture was rotated at 4° C. for 30 minutes, before being separated from the excess dye and buffer exchanged into 25 mM Tris, 100 mM sodium chloride, 2 mM TCEP, and 5 mM MgCl2 via a nap-5 column. The test compounds were arrayed across a 16-point dilution series consisting of 1.5% DMSO with 25 mM Tris, 100 mM NaCl, 2 mM TCEP, 5 mM MgCl2 and 0.05% tween-20. Thermophoretic movement of the fluorescently labeled protein with the inhibitors was performed using a Monolith NT.115 (Nanotemper Technologies). RALA and RHOA were purchased commercially from Abcam (RALA CN:ab102555, RHOA CN:ab101594).
To provide evidence that the compound indeed was selective for RAS GTPases, MST binding measurements were performed on GppNHp-loaded RHEB, RHOA and RALA (FIG. 14J).

[7] = tested on: MDA-MB-231 xenografts; assay: Mouse xenograft, pharmacodynamic study; assay type: in vivo
Procedure: For the pharmacodynamic study, athymic nude mice (eight weeks; Charles River Laboratories) were injected with 8 million MDA-MB-231 cells subcutaneously. […] Tumor size was measured by electronic caliper every two days and calculated using the formula: 0.523×Length×width^2.
Mice were euthanized using a CO2 gas chamber before xenograft dissection. Tumors were then weighed, frozen and stored at −80° C. Segments of the tumor were taken (about 60 mg) and suspended in 120 μL lysis buffer. Xenografts were then lysed by sonication (40 amp for 10-15 seconds) and samples were centrifuged at 14,000 rpm at 4° C. for 30 minutes to remove unlysed cells and debris. The supernatant was then analyzed by Western blotting using the aforementioned protocol.

Row | Compound | CRAF-RBD-bound RAS [1] | pERK abundance [2] | aqueous solubility [3] | size of multicellular tumor spheroids [4] | phosphorylated AKT [5] | binding [6] | toxicity ([7]; 30 mg/kg daily intraperitoneal injection) | tumor pERK levels lower than vehicle ([7]; Western blotting of xenografts, 30 mg/kg i.p.) | effect on three dimensional multicellular spheroids ([4]; 20 μM)
1 | NC1(C(=O)NCCCn2cc(-c3cccc(F)c3)c3c(CN4CCN(CCOc5ccc(Cl)cc5)CC4)cccc32)CCNCC1 [Compound 34MEW43, 4-amino-N-(3-(4-((4-(2-(4-chlorophenoxy)ethyl)piperazin-1-yl)methyl)-3-(3-fluorophenyl)-1H-indol-1-yl)propyl)piperidine-4-carboxamide] | dose-dependent decrease in CRAF-RBD-bound RAS | effectively decreased pERK abundance in a dose-dependent manner | low aqueous solubility | decreased in size in a dose-dependent manner | dose-dependent decrease in phosphorylated AKT | – | – | – | –
2 | NC1(C(=O)NCCCn2cc(-c3ccc(OC(F)(F)F)cc3)c3cc(CN4CCN(Cc5c(Cl)cccc5Cl)CC4)ccc32)CCNCC1 [Compound 31MEW44, 4-amino-N-(3-(5-((4-(2,6-dichlorobenzyl)piperazin-1-yl)methyl)-3-(4-(trifluoromethoxy)phenyl)-1H-indol-1-yl)propyl)piperidine-4-carboxamide] | dose-dependent decrease in CRAF-RBD-bound RAS | effectively decreased pERK abundance in a dose-dependent manner | more soluble | decreased in size in a dose-dependent manner | dose-dependent decrease in phosphorylated AKT | no binding was observed | No overt toxicity | about 70% | killed

Reference: patent US9926293B2, “Multivalent RAS binding compounds” (THE TRUSTEES OF COLUMBIA UNIVERSITY IN THE CITY OF NEW YORK, priority 2014, dated 2018)
